The values below come from patent US10993920B2, “2-dodecyl-6-methoxycyclohexa-2,5-diene-1,4-dione as a cancer therapeutic” (MIDDLE TENNESSEE STATE UNIVERSITY, priority 2014, dated 2021).

In one series the test system is HMEC. Put plainly: Anti-proliferation assay (PrestoBlue), normal cell control. It counts as cell-based, human. As to conditions: for cell death: HMEC. On the procedure: BT20 and MCF-7, human breast carcinoma cell lines (ATCC), were maintained in RPMI 1640 and Dulbecco's Modified Eagle Medium (DMEM) (Sigma), respectively. THP-1, a human monocytic leukemic cell line (ATCC), was maintained in RPMI 1640. HMEC, a normal human mammary epithelial cell line (ATCC), was maintained in McCoy's 5A (ATCC). All mediums were supplemented with 10% fetal bovine serum (FBS) (Gibco) and 1% penicillin-streptomycin and all cells were incubated in a humidified atmosphere with 5% CO2 at 37° C.
The proliferation inhibition potential of DMDD was determined in human breast cancer cell lines MCF-7 and BT20 by a fluorescence dye staining method with the normal cell line HMEC serving as a control. Cells were seeded at a density of 4˜5×10^3 cells/well in a 96-well tissue culture-treated plate (Corning Costar) and were incubated overnight. They were then treated with DMDD at final concentrations of 320 μM, 100 μM, 32 μM, 10 μM, 3.2 μM, 1 μM, and 0.32 μM. An experimental control with cells only was also included. After incubation for 48 h, the viability of cells was assessed using PrestoBlue dye (Invitrogen) according to manufacturer's protocol. The fluorescence intensity was measured on a SpectraMax M2e microplate reader (Molecular Devices, Inc.) at a fluorescent excitation wavelength of 555 nm and emission wavelength of 590 nm. The results were expressed as a percentage, relative to untreated control cells, and the half maximal inhibitory concentration (IC50) values were calculated using non-linear regression analysis.

The subject of series [1] is BT20. Put plainly: Multi parameter cytotoxicity measurement (HCS). It counts as cell-based, human. The method, then: MCF-7 and BT20 cells were seeded in a 96-well plate (Corning Costar) at a density of 4,000 cells/well and subsequently treated with different concentrations (10, 32, 100 μM) of DMDD for 48 h. Non-treated cells and cells treated with 100 μM Valinomycin were used as negative (control) and positive controls, respectively. Afterwards, the cells were stained with a mixture of fluorescent dyes including Hoechst 33342, cell permeability dye and mitochondrial membrane potential dye (Thermo Scientific). These dyes indicated changes in nuclear morphology (Channel 1), cell membrane permeability (Channel 2) and mitochondrial transmembrane potential (Channel 3), respectively. The cells were fixed and washed, and images for each fluoroprobe were acquired at different channels using suitable filters with a 20× objective and analyzed on the Arrayscan VTI HCS Reader (Thermo Scientific). The Cell Health Profiling BioApplication (Thermo Scientific) was used for image acquisition and analysis. For each well, at least 400 cells were automatically acquired and analyzed. The average fluorescent intensity was used to quantify changes in each channel.

In series [2] the test system is BT20. Kind of series: Apoptosis assay (Annexin V/7-AAD). The class given is cell-based, human. As to conditions: BT20, 48 h, concentration-dependent. The method, then:
(§1) MCF-7 and BT20 cells were seeded in a 96-well plate (Corning Costar) at a density of 8,000 cells/well and were subsequently treated with different concentrations (10, 32, 100 μM) of DMDD for 48 h. Afterwards, the cells were stained with Annexin V (Millipore) and 7-Aminoactinomycin (7-AAD) (Millipore), and analyzed on a Guava flow cytometer using InCyte software (Millipore).

In series [3] the test system is MCF-7. Kind of series: Apoptosis assay (Annexin V/7-AAD). The class given is cell-based, human. As to conditions: MCF-7, 48 h, concentration-dependent. The method, then: as §1
Series [4] concerns caspase 3/7 in BT20 cells. Kind of series: Caspase-Glo 3/7 activation assay. It counts as cell-based, human. As to conditions: BT20, 4 h, concentration-dependent.
The next series deals with caspase 8 in BT20 cells. Put plainly: Caspase-Glo 8 activation assay. It counts as cell-based, human. As to conditions: BT20, 4 h, depending on the concentration. On the procedure: (§2) Caspase 3/7 and caspase 8 activities were analyzed using an in-situ luminescent maker in MCF-7 and BT20 cells respectively. Cells were seeded in a white 96-well plate (Greiner), treated with 100 μM DMDD for 4 h. Caspases activity was then determined using the Caspase-Glo 3/7 Assay (Promega) or the Caspase-Glo 8 Assay (Promega) according to the manufacturer's instructions. Briefly, cells were incubated with Caspase-Glo 3/7 substrate or Caspase-Glo 8 substrate and the luminescence of each sample was measured using a SpectraMax M2e Microplate Reader (Molecular Devices).

The next series concerns caspase 8 in MCF-7 cells. Put plainly: Caspase-Glo 8 activation assay. It counts as cell-based, human. As to conditions: MCF-7, 4 h, depending on the concentration. On the procedure: as §2
Series [5] concerns BT20. Kind of series: Cytochrome c release assay. As to conditions: BT20, 48 h. It counts as cell-based, human. The method, then: (§3) MCF-7 and BT20 cells were seeded in a 96-well plate (Corning Costar) at a density of 8,000 cells/well and were subsequently treated with 100 μM of DMDD for 48 h. The percentage of cells releasing cytochrome c from mitochondria was determined using the FlowCellect Cytochrome c Kit (Millipore) according to the manufacturer's protocol. Briefly, cells were permeabilized, fixed, and stained with either anti-IgG1-FITC Isotype control or anti-Cytochrome c-FITC dye. Data was acquired and analyzed using a Guava flow cytometer and InCyte software (Millipore).

In series [6] the test system is MCF-7. Kind of series: Cytochrome c release assay. It counts as cell-based, human. As to conditions: MCF-7, 48 h. On the procedure: as §3
For the next series, the system named is THP-1. Put plainly: AlamarBlue cell viability of THP-1 cells. It counts as cell-based, human. As to conditions: with or without LPS stimulation. The method, then:
THP-1 cells were seeded in a 96 well plate at a density of 5×10^5 cells/well, and incubated with 100 nM phorbol-12-myristate-13-acetate (PMA) (Sigma) for 72 h. After washing the wells with warm RPMI 1640 medium, cells were pretreated with various concentrations of DMDD (10, 32, 100 μM) for 30 minutes followed by 100 ng/ml Salmonella enterica serotype typhimurium lipopolysaccharide (LPS) (Sigma). Dexamethasone at 1 μM (Sigma) was used as a positive control. After 4 h of stimulation, supernatants were collected for the quantification of human TNF-α using the Duoset enzyme-linked immunosorbent assay (ELISA) development kit (R&D Systems). AlamarBlue cell viability reagent (Invitrogen) was used to access cell integrity, after the supernatant was removed, at a fluorescent excitation wavelength of 555 nm and emission wavelength of 590 nm.
(In general: The colour change of resazurin is a common sign of viable cells or microbes.)

The conditions of series [7]: diabetic mouse model; cited from earlier work.

Take `CCCCCCCCCCCCC1=CC(=O)C=C(OC)C1=O` [DMDD, 2-dodecyl-6-methoxycyclohexa-2,5-diene-1,4-dione]: the cell death result in the series with HMEC (3.2 μM) is “not affected”; in the series with HMEC (10 μM) it was 12.7%. In the series on HMEC (Homo sapiens, HMEC normal cells, 48 h treatment), this compound gave an IC50 of 48.1 µM. Further, the nuclear morphology result in the series on BT20 [1] (BT20, 100 μM, 48 h) is reported as “nuclear condensation”. In the series on BT20 [1] (BT20, 48 h, dose-dependent), the mitochondrial membrane potential result is listed as “loss of mitochondrial potential”. The plasma membrane permeability entry in the series with BT20 [1] (BT20, 48 h, dose-dependent) is on record as “increased plasma membrane permeability”. Besides, the apoptosis induction entry with BT20 [2] and in the series with MCF-7 [3] was “induced apoptosis” each time. Also, the “caspase 3/7 activity vs untreated cells” value in series [4] was “increased significantly”. Moreover, the “caspase 8 activity increase” value in the series on caspase 8 in BT20 cells and in the series on caspase 8 in MCF-7 cells was 2-5 fold in each case. Further, the “cytochrome c release from mitochondria” value with BT20 [5] and with MCF-7 [6] was “released” each time. Also, the “viability of THP-1 cells” value with THP-1 was “did not affect the viability”. The effective dosage in series [7] was 12.5 to 25 mg/kg.

The term IC50 denotes the point on the concentration scale where inhibition reaches its midpoint. A high value points to lower potency.
